# Experimental data from US10189838B2, “Aza-oxo-indoles for the treatment and prophylaxis of respiratory syncytial virus infection” (Hoffmann-La Roche Inc., priority 2013, dated 2019).
# Test system: RSV Long strain
# Test: Viral cytopathic effect (CPE) assay, RSV Long strain
# Format: cell-based, Respiratory Syncytial Virus
# Details: human respiratory syncytial virus, 144 h, cell viability after 6 days (Cell Counting kit-8)
# Description: EC50: the concentration of a compound where 50% of its maximal protection effect against viral induced CPE is observed
# LongStrain: an A subtype RSV strain obtained from ATCC with catalog number VR-26
# To measure anti-RSV activity of compounds, 96-well plates are seeded with 6×10^3 cells per well in Dulbecco's modified Eagle's medium (DMEM) containing 10% fetal bovine serum (FBS). Cells are infected the next day with sufficient RSV Long strain (ATCC) to produce an approximately 80-90% cytopathic effect after 6 days, in the presence of serial half-log diluted compound in a total volume of […] per well. The viability of cells is assessed after 6 days using Cell Counting kit-8 (Dojindo Molecular Technologies). The absorbance at 450 nm and referenced at 630 nm is measured to determine 50% effective concentration (EC50)
row,SMILES,EC50 [nM]
1,"O=C1N(Cc2cc3cc(Cl)ccc3n2CCCCN2CCCS2(=O)=O)c2cnccc2C12CC2 [Example 7-8, 1′-({5-Chloro-1-[4-(1,1-dioxido-1,2-thiazolidin-2-yl)butyl]-1H-indol-2-yl}methyl)spiro[cyclopropane-1,3′-pyrrolo[2,3-c]pyridin]-2′(1′H)-one]",18
2,"O=C1N(Cc2cc3cc(Cl)ccc3n2CCCN2CCS(=O)(=O)CC2)c2cnccc2C12CC2 [Example 7-9, 1′-({5-Chloro-1-[3-(1,1-dioxidothiomorpholin-4-yl)propyl]-1H-indol-2-yl}methyl)spiro[cyclopropane-1,3′-pyrrolo[2,3-c]pyridin]-2′(1′H)-one]",797
3,"O=C1N(Cc2cc3cc(Cl)ccc3n2CCCN2CCCS2(=O)=O)c2cnccc2C12CC2 [Example 7-10, 1′-({5-Chloro-1-[3-(1,1-dioxido-1,2-thiazolidin-2-yl)propyl]-1H-indol-2-yl}methyl)spiro[cyclopropane-1,3′-pyrrolo[2,3-c]pyridin]-2′(1′H)-one]",29
4,"O=C1N(Cc2cc3cc(Cl)ccc3n2CCCO)c2cnccc2C12CC2 [Example 8, 1′-{[5-Chloro-1-(3-hydroxypropyl)-1H-indol-2-yl]methyl}spiro[cyclopropane-1,3′-pyrrolo[2,3-c]pyridin]-2′(1′H)-one]",58
5,"[2H]C([2H])(c1cc2cc(Cl)ccc2n1CCS(C)(=O)=O)N1C(=O)C2(CC2)c2ccncc21 [Example 9, 1′-[{5-Chloro-1-[2-(methylsulfonyl)ethyl]-1H-indol-2-yl}(^2H2)methyl]spiro[cyclopropane-1,3′-pyrrolo[2,3-c]pyridin]-2′(1′H)-one]",19
6,"[2H]C([2H])(c1cc2cc(Cl)ccc2n1CCCS(C)(=O)=O)N1C(=O)C2(CC2)c2ccncc21 [Example 10, 1′[{-5-Chloro-1-[3-(methylsulfonyl)propyl]-1H-indol-2-yl}(^2H2)methyl]spiro[cyclopropane-1,3′-pyrrolo[2,3-c]pyridin]-2′(1′H)-one]",19
7,"CCOC(=O)CCn1c(CN2C(=O)C3(CC3)c3ccncc32)cc2cc(Cl)ccc21 [Example 11, Ethyl 3-{5-chloro-2-[(2′-oxospiro[cyclopropane-1,3′-pyrrolo[2,3-c]pyridin]-1′(2′H)-yl)methyl]-1H-indol-1-yl}propanoate]",19
8,"O=C1N(Cc2cc3cc(Cl)cnc3n2CCC2CS(=O)(=O)C2)c2cnccc2C12CC2 [Example 12, 1′-({5-Chloro-1-[2-(1,1-dioxidothietan-3-yl)ethyl]-1H-pyrrolo[2,3-b]pyridin-2-yl}methyl)spiro[cyclopropane-1,3′-pyrrolo[2,3-c]pyridin]-2′(1′H)-one]",29
9,"CCOC(=O)CCn1c(CN2C(=O)C3(CC3)c3ccncc32)cc2cc(Cl)cc(F)c21 [Example 13, Ethyl 3-{5-chloro-7-fluoro-2-[(2′-oxospiro[cyclopropane-1,3′-pyrrolo[2,3-c]pyridin]-1′(2′H)-yl)methyl]-1H-indol-1-yl}propanoate]",18
10,"CS(=N)(=O)CCCn1c(CN2C(=O)C3(CC3)c3ccncc32)cc2cc(Cl)ccc21 (centres unmarked) [Example 14-1, 1′-({5-Chloro-1-[3-(S-methylsulfonimidoyl)propyl]-1H-indol-2-yl}methyl)spiro[cyclopropane-1,3′-pyrrolo[2,3-c]pyridin]-2′(1′H)-one]",6
11,"CS(=N)(=O)CCn1c(CN2C(=O)C3(CC3)c3ccncc32)cc2cc(Cl)ccc21 (centres unmarked) [Example 14-2, 1′-({5-Chloro-1-[2-(S-methylsulfonimidoyl)ethyl]-1H-indol-2-yl}methyl)spiro[cyclopropane-1,3′-pyrrolo[2,3-c]pyridin]-2′(1′H)-one]",7
12,"CS(=N)(=O)CCCCn1c(CN2C(=O)C3(CC3)c3ccncc32)cc2cc(Cl)cnc21 (centres unmarked) [Example 14-3, 1′-({5-Chloro-1-[4-(S-methylsulfonimidoyl)butyl]-1H-pyrrolo[2,3-b]pyridin-2-yl}methyl)spiro[cyclopropane-1,3′-pyrrolo[2,3-c]pyridin]-2′(1′H)-one]",74
13,"CS(=N)(=O)CCn1c(CN2C(=O)C3(CC3)c3ccncc32)cc2cc(Cl)cnc21 (centres unmarked) [Example 14-4, 1′-({5-Chloro-1-[2-(S-methylsulfonimidoyl)ethyl]-1H-pyrrolo[2,3-b]pyridin-2-yl}methyl)spiro[cyclopropane-1,3′-pyrrolo[2,3-c]pyridin]-2′(1′H)-one]",172
14,"CC(=O)N=S(C)(=O)CCn1c(CN2C(=O)C3(CC3)c3ccncc32)cc2cc(Cl)ccc21 (centres unmarked) [Example 15, N-[(2-{5-Chloro-2-[(2′-oxospiro[cyclopropane-1,3′-pyrrolo[2,3-c]pyridin]-1′(2′H)-yl)methyl]-1H-indol-1-yl}ethyl)(methyl)oxido-λ^6-sulfanylidene]acetamide]",25
15,"O=C(O)CCn1c(CN2C(=O)C3(CC3)c3ccncc32)cc2cc(Cl)ccc21 [Example 16-1, 3-{5-Chloro-2-[(2′-oxospiro[cyclopropane-1,3′-pyrrolo[2,3-c]pyridin]-1′(2′H)-yl)methyl]-1H-indol-1-yl}propanoic acid]",390
16,"O=C(O)CCn1c(CN2C(=O)C3(CC3)c3ccncc32)cc2cc(Cl)cc(F)c21 [Example 16-2, 3-{5-Chloro-7-fluoro-2-[(2′-oxospiro[cyclopropane-1,3′-pyrrolo[2,3-c]pyridin]-1′(2′H)-yl)methyl]-1H-indol-1-yl}propanoic acid]",300
17,"COC(=O)CCCn1c(CN2C(=O)C3(CC3)c3ccncc32)cc2cc(Cl)ccc21 [Example 17, Methyl 4-{5-chloro-2-[(2′-oxospiro[cyclopropane-1,3′-pyrrolo[2,3-c]pyridin]-1′(2′H)-yl)methyl]-1H-indol-1-yl}butanoate]",18.6
18,"NC(=O)CCn1c(CN2C(=O)C3(CC3)c3ccncc32)cc2cc(Cl)ccc21 [Example 18-1, 3-{5-Chloro-2-[(2′-oxospiro[cyclopropane-1,3′-pyrrolo[2,3-c]pyridin]-1′(2′H)-yl)methyl]-1H-indol-1-yl}propanamide]",17
19,"NC(=O)CCn1c(CN2C(=O)C3(CC3)c3cccnc32)cc2cc(Cl)ccc21 [Example 18-2, 3-{5-Chloro-2-[(2′-oxospiro[cyclopropane-1,3′-pyrrolo[2,3-b]pyridin]-1′(2′H)-yl)methyl]-1H-indol-1-yl}propanamide]",711
20,"NC(=O)CCCn1c(CN2C(=O)C3(CC3)c3ccncc32)cc2cc(Cl)ccc21 [Example 18-3, 4-{5-Chloro-2-[(2′-oxospiro[cyclopropane-1,3′-pyrrolo[2,3-c]pyridin]-1′(2′H)-yl)methyl]-1H-indol-1-yl}butanamide]",11
21,"O=C(CCn1c(CN2C(=O)C3(CC3)c3ccncc32)cc2cc(Cl)ccc21)NS(=O)(=O)C1CC1 [Example 19-1, 3-{5-Chloro-2-[(2′-oxospiro[cyclopropane-1,3′-pyrrolo[2,3-c]pyridin]-1′(2′H)-yl)methyl]-1H-indol-1-yl}-N-(cyclopropylsulfonyl)propanamide]",1180
22,"CN(C(=O)CCn1c(CN2C(=O)C3(CC3)c3ccncc32)cc2cc(Cl)ccc21)S(=O)(=O)C1CC1 [Example 19-2, 3-{5-Chloro-2-[(2′-oxospiro[cyclopropane-1,3′-pyrrolo[2,3-c]pyridin]-1′(2′H)-yl)methyl]-1H-indol-1-yl}-N-(cyclopropylsulfonyl)-N-methylpropanamide]",59
23,"CN(C(=O)CCn1c(CN2C(=O)C3(CC3)c3ccncc32)cc2cc(Cl)ccc21)S(C)(=O)=O [Example 19-3, 3-{5-Chloro-2-[(2′-oxospiro[cyclopropane-1,3′-pyrrolo[2,3-c]pyridin]-1′(2′H)-yl)methyl]-1H-indol-1-yl}-N-methyl-N-(methylsulfonyl)propanamide]",47
24,"O=C1CNC(=O)N1CCn1c(CN2C(=O)C3(CC3)c3ccncc32)cc2cc(Cl)ccc21 [Example 20, 3-(2-{5-Chloro-2-[(2′-oxospiro[cyclopropane-1,3′-pyrrolo[2,3-c]pyridin]-1′(2′H)-yl)methyl]-1H-indol-1-yl}ethyl)imidazolidine-2,4-dione]",3480
25,"O=C1N(Cc2cc3cc(Cl)ccc3n2CCCN2CC[C@@H](O)C2)c2cnccc2C12CC2 [Example 21, 1′-[(5-Chloro-1-{3-[(3R)-3-hydroxypyrrolidin-1-yl]propyl}-1H-indol-2-yl)methyl]spiro[cyclopropane-1,3′-pyrrolo[2,3-c]pyridin]-2′(1′H)-one]",544
26,"CCS(=O)(=O)CCCn1c(CN2C(=O)C3(CC3)c3ccncc32)cc2cc(Cl)ccc21 [Example 22-1, 1′-({5-Chloro-1-[3-(ethylsulfonyl)propyl]-1H-indol-2-yl}methyl)spiro[cyclopropane-1,3′-pyrrolo[2,3-c]pyridin]-2′(1′H)-one]",3
27,"CS(=O)(=O)CCCn1c(CN2C(=O)C3(CC3)c3cccnc32)cc2cc(Cl)ccc21 [Example 22-2, 1′-({5-Chloro-1-[3-(methylsulfonyl)propyl]-1H-indol-2-yl}methyl)spiro[cyclopropane-1,3′-pyrrolo[2,3-b]pyridin]-2′(1′H)-one]",88
28,"CS(=O)(=O)CCCn1c(CN2C(=O)C3(CC3)c3ccncc32)cc2cc(Cl)ccc21 [Example 22-3, 1′-({5-Chloro-1-[3-(methylsulfonyl)propyl]-1H-indol-2-yl}methyl)spiro[cyclopropane-1,3′-pyrrolo[2,3-c]pyridin]-2′(1′H)-one]",3
29,"CCS(=O)(=O)CCCn1c(CN2C(=O)C3(CC3)c3ccncc32)cc2cc(Cl)cnc21 [Example 23, 1′-({5-Chloro-1-[3-(ethylsulfonyl)propyl]-1H-pyrrolo[2,3-b]pyridin-2-yl}methyl)spiro[cyclopropane-1,3′-pyrrolo[2,3-c]pyridin]-2′(1′H)-one]",63
